Data taken from US20200123146A1, “HETEROCYCLIC INTEGRIN AGONISTS” (GB006, Inc., priority 2016, published 2020).
One block for each compound: values may come before it.

Assays:
[1] = molecular target: T1, integrin CD11b/CD18 (K562 CD11b/CD18 cells) (Homo sapiens, UniProt P05107+P11215); experiment: K562 cell adhesion assay with immobilized ligands; type: cell-based; settings: cell-based adhesion assay, K562 cells, 30 min at 37° C.
T1 construct: host or cells: K562 cells stably transfected with wild-type CD11b/CD18
Excerpt: (§1) Cell Lines. K562 cells (ATCC) stably transfected with wild-type integrin CD11b/CD18 (K562 CD11b/CD18) have been described previously (Park, etal. J Biomol Screen, 2007. 12(3): 406; Gupta, et al., Blood, 2007. 109(8): 3513; incorporated herein by reference in their entirety). Mutant CD11bE320A has been described previously (Alonso, et al. Curr Biol, 2002. 12(10): R340; incorporated herein by reference in its entirety). K562 cells stably transfected with mutant integrin CD11bE320A/CD18 (K562 E320A) were generated according to literature protocols (Park, supra; Gupta, supra). All cell lines were maintained in Iscove's Modified Dulbecco's Medium (IMDM) supplemented with 10% heat-inactivated fetal bovine serum, 50 IU/ml penicillin and streptomycin and 0.5 mg/ml G418.
(§2) K562 Cell Adhesion Assay. Cell adhesion assays with immobilized ligands were performed as previously described (Park, supra). Assays with all different K562 cell lines (K562, K562 CD11b/CD18 and K562 E320A) were performed in an identical fashion. Briefly, 384-well Highbind microtiter plates were coated with a 30 μL solution of ligand in Phosphate Buffered Saline, pH 7.4 containing 1 mM each of Ca^2+ and Mg^2+ ions (PBS^++) overnight at 4° C. Ligand Fg was coated at a concentration of 5-15 μg/mL and iC3b at 1-5 μg/mL. Heterodimer specific mAb IB4 was coated at 1-20 μg/mL. Subsequently, the non-specific sites in the wells were blocked by incubation with 1% non-fat milk in Tris Buffered Saline (TBS), pH 7.4, at room temperature for 1 h. Next, the wells were washed three times with TBS. K562 cells were suspended in the assay buffer (TBS containing 1 mM each of Ca^2+ and Mg^2+ ions (TBS^++)) and were transferred to the ligand-coated wells (30,000 cells/well). Stock solutions of the integrin agonists were prepared by dissolving the compounds in DMSO at a concentration of 2-10 mM. Final concentration of DMSO in the assay was approximately 1-2%. K562 cells were incubated in the presence of increasing concentration of integrin agonist for 30 min at 37° C. To dislodge non-adherent cells, the assay plates were gently inverted and kept in the inverted position for 30 min at room temperature. Cells remaining adherent were fixed using formaldehyde and were quantitated using imaging microscopy, as previously described (Park, supra).

[2] = molecular target: T2, integrin CD11b/CD18 (K562 CD11b/CD18 cells) (Homo sapiens, UniProt P11215); experiment: K562 cell adhesion assay with immobilized ligands; type: cell-based; settings: for activity level in adhesion assay: compared with the other compounds in the study
T2 construct: host or cells: K562 cells stably transfected with wild-type CD11b/CD18
Excerpt: as §1, §2

CT26 cells = experiment: Syngeneic colon cancer mouse model using CT-26 cell line; type: in vivo, BALB/c mice; settings: Day 21, female Balb/C, 10 mg/kg PO BID
Procedure: Compound 1, compound 8, and compound 12 were dosed at 10 mg/kg BID oral daily for 21 days in a syngeneic colon cancer mouse model using CT-26 cell line. CT26 cells were injected subcutaneously into right flank of female BALB/c mice, aged 7-8 weeks, on Day 1. Tumors were grown for 11 days and dosing was begun and dosed daily for 21 days. Tumor volume/growth (TV=Length×Width 2/2) was measured two times a week. Body weight was measured twice weekly. At the end of study tumor tissue and serum was collected and preserved. Morbidity and Mortality was monitored during the course of study.

[3] = Pharmacokinetic properties after PO/IV cassette dosing; type: in vivo, Balb/C mice; settings: mouse, plasma; for Vd: read-out: Vdss; for AUC(0-t): PO 10 mg/kg and/or IV 1 mg/kg cassette dose; for bioavailability: head prints Rat, method Balb/C mice, PO 10 mg/kg, IV 1 mg/kg cassette dose, read-out: Rat F %
Procedure: Integrin agonists as described above were administered to Balb/C mice orally (PO; gavage; 10 mg/kg) and/or intravenously (IV; bolus through tail vein; 1 mg/kg) as a cassette dose with 2 to 3 compounds dosed at a time. A total of twelve mice between age 5-6 weeks with a body weight range of 24-28 g were used. The feeding regimen included 4 h fasting and the feed was provided 2 h after the dosage inoculation and water was provided ad libitum. The blood collection schedule for PO was at 0.25, 0.5, 1, 2, 4, 8,10 and 24 h, and for IV it was at 0.12, 0.25, 0.5, 1, 2, 4, 8 and 24 h post-dose administration under isoflurane anesthesia. For PO dosage, a suspension formulation in 0.2% Tween-80 and 99.8% methyl cellulose (0.5% in water) was prepared in milli-Q water; for IV dosage, a solution formulation in 5% DMSO, 5% Solutol:absolute alcohol (1:1, v/v), and 90% normal saline was prepared.
Dose preparation: For PO dosage, each integrin agonist was wetted with Tween-80 and triturated in a mortar and pestle, and then 0.5% of methyl cellulose was slowly added to make up the final volume for administration. For IV dosage, each integrin agonist was dissolved in DMSO and Solutol:absolute ethanol (1:1, v/v), vortexed, and combined with normal saline.
Methodology for preparation of CC/QC samples: 5 μL of working stock solution was spiked in to 45 μL of blank plasma to obtain the desired concentration in pre-labeled vials. To it was added 250 μL of 100% acetonitrile containing internal standard (tolbutamide: 100 ng/mL) and the sample was vortexed for 2 min followed by centrifugation for 5 min at 20,817×g at 4° C. Supernatant was separated and 5 μL of same was injected on LC-MS/MS.
Data Analysis: Na2EDTA plasma samples were analyzed using a fit-for-purpose LC-MS/MS method.

[4] = mice; cited from earlier work
[5] = upon vascular injury in rats; cited from earlier work
[6] = in vivo; cited from earlier work
leukocytes = settings: acute peritonitis in mice; cited from earlier work
[7] = in vivo; cited from earlier work; remark: listed apart in the source
tumor = settings: in vivo; cited from earlier work
[8] = in vivo; cited from earlier work; remark: listed apart in the source
[9] = in vivo; cited from earlier work; remark: listed apart in the source
[10] = Balb/C, IV 1 mg/kg and/or PO 10 mg/kg cassette dose

EC50 [1]: 250 to 1000 nM | fold more active in promoting adhesion than imidazolidine compound 4 ([2]; relative to compound 4): greater than 7 fold | fold more active in promoting adhesion than imidazolidine compound 5 ([2]; relative to compound 5): greater than 40 fold | Tmax [3, 10]: 2 h | half-life [3, 10]: 1.97 h | Vd [3, 10]: 1.5 L/kg | AUC(0-t) ([3]; Balb/C): 1060 ng·h/mL | bioavailability [3]: 18.6%
SMILES: O=C(O)c1ccc(-c2ccc(/C=C3\OC(=S)N(Cc4ccccc4)C3=O)o2)cc1 [Compound 1, (Z)-4-(5-((3-Benzyl-4-oxo-2-thioxooxazolidin-5-ylidene)methyl)furan-2-yl)benzoic acid]
% Reduction in Tumor Volume (CT26 cells): −38.30% | % Reduction in Tumor Weight (CT26 cells): −37.15%

EC50 [1]: 100 to 250 nM | Tmax [3, 10]: 2 h | half-life [3, 10]: 3.09 h | Vd [3, 10]: 1.37 L/kg | bioavailability [3]: 8.82%
SMILES: O=C(O)c1ccc(-c2ccc(/C=C3\OC(=S)N(Cc4ccc(F)cc4)C3=O)o2)cc1 [Compound 8, (Z)-4-(5-((3-(4-Fluorobenzyl)-4-oxo-2-thioxooxazolidin-5-ylidene)methyl)furan-2-yl)benzoic acid]
% Reduction in Tumor Volume (CT26 cells): 5.25% | % Reduction in Tumor Weight (CT26 cells): −3.08%

EC50 [1]: 100 to 250 nM | activity level in adhesion assay [2]: some of the highest activity levels | Cmax [3, 10]: 55 ng/mL | Tmax [3, 10]: 0.5 h | half-life [3, 10]: 1.39 h | AUC(0-t) ([3]; Balb/C): 176 ng·h/mL
SMILES: O=C(O)c1ccc(-c2ccc(/C=C3\SC(=S)N(Cc4ccccc4)C3=O)o2)cn1 [Compound 12, (Z)-5-(5-((3-benzyl-4-oxo-2-thioxothiazolidin-5-ylidene)methyl)furan-2-yl)picolinic acid]
% Reduction in Tumor Volume (CT26 cells): −4.42% | % Reduction in Tumor Weight (CT26 cells): 11.03%

EC50 [1]: 100 to 250 nM | activity level in adhesion assay [2]: some of the highest activity levels
SMILES: O=C(O)c1ccc(-c2ccc(/C=C3\SC(=S)N(Cc4ccc(F)cc4)C3=O)o2)cn1 [Compound 15, (Z)-5-(5-((3-(4-Fluorobenzyl)-4-oxo-2-thioxothiazolidin-5-ylidene)methyl)furan-2-yl)picolinic acid]

EC50 [1]: 1000 to 10000 nM
SMILES: Cc1ccc(CN2C(=O)/C(=C/c3ccc(-c4ccc(C(=O)O)cc4)o3)SC2=S)c(C)c1 [Compound 37, (Z)-4-(5-((3-(2,4-Dimethylbenzyl)-4-oxo-2-thioxothiazolidin-5-ylidene)methyl)furan-2-yl)benzoic acid]

EC50 [1]: 100 to 250 nM
SMILES: Cc1ccc(CN2C(=O)/C(=C/c3ccc(-c4ccc(C(=O)O)cc4)o3)SC2=S)cc1C [Compound 38, (Z)-4-(5-((3-(3,4-Dimethylbenzyl)-4-oxo-2-thioxothiazolidin-5-ylidene)methyl)furan-2-yl)benzoic acid]

EC50 [1]: 250 to 1000 nM
SMILES: CC(C)c1ccc(CN2C(=O)/C(=C/c3ccc(-c4ccc(C(=O)O)cc4)o3)SC2=S)cc1 [Compound 39, (Z)-4-(5-((3-(4-Isopropylbenzyl)-4-oxo-2-thioxothiazolidin-5-ylidene)methyl)furan-2-yl)benzoic acid]

EC50 [1]: 1000 to 10000 nM
SMILES: O=C(O)c1ccc(-c2ccc(/C=C3\SC(=S)N(CC4CCCCC4)C3=O)o2)cc1 [Compound 40, (Z)-4-(5-((3-(Cyclohexylmethyl)-4-oxo-2-thioxothiazolidin-5-ylidene)methyl)furan-2-yl)benzoic acid]

EC50 [1]: 1000 to 10000 nM
SMILES: O=C(O)c1ccc(-c2ccc(/C=C3\SC(=S)N(Cc4ccccc4O)C3=O)o2)cc1 [Compound 41, (Z)-4-(5-((3-(2-hydroxybenzyl)-4-oxo-2-thioxothiazolidin-5-ylidene)methyl)furan-2-yl)benzoic acid]

EC50 [1]: 250 to 1000 nM | Tmax [3, 10]: 0.5 h | half-life [3, 10]: 0.77 h | Vd [3, 10]: 1.15 L/kg | AUC(0-t) ([3]; Balb/C): 357 ng·h/mL | bioavailability [3]: 4.1%
SMILES: O=C1/C(=C/c2ccc(-c3ccc(-c4nnn[nH]4)cc3)o2)SC(=S)N1Cc1ccccc1 [Compound 42, (Z)-5-((5-(4-(1H-tetrazol-5-yl)phenyl)furan-2-yl)methylene)-3-benzyl-2-thioxothiazolidin-4-one]

SMILES: O=C(O)c1ccc(-c2ccc(/C=C3\SC(=S)N(Cc4ccccc4)C3=O)o2)cc1 [LA1, (Z)-4-(5-((3-benzyl-4-oxo-2-thioxothiazolidin-5-ylidene)methyl)furan-2-yl)benzoic acid]
renal ischemia/reperfusion injury [4]: reduce renal ischemia/reperfusion injury | neointimal thickening [5]: reduce neointimal thickening | liver repair [6]: enhance liver repair | recruitment of leukocytes (leukocytes): reduce recruitment of leukocytes | allograft survival [7]: increase allograft survival | tumor growth and re-growth (tumor): reduced tumor growth and re-growth | hyperoxia-dependent lung injury [8]: reduce hyperoxia-dependent lung injury | liver fibrosis [9]: reduce liver fibrosis
